Assay [1] addresses T1, Acetylcholinesterase (Mus musculus, UniProt P21836).
T1 sequence (P21836 whole entry): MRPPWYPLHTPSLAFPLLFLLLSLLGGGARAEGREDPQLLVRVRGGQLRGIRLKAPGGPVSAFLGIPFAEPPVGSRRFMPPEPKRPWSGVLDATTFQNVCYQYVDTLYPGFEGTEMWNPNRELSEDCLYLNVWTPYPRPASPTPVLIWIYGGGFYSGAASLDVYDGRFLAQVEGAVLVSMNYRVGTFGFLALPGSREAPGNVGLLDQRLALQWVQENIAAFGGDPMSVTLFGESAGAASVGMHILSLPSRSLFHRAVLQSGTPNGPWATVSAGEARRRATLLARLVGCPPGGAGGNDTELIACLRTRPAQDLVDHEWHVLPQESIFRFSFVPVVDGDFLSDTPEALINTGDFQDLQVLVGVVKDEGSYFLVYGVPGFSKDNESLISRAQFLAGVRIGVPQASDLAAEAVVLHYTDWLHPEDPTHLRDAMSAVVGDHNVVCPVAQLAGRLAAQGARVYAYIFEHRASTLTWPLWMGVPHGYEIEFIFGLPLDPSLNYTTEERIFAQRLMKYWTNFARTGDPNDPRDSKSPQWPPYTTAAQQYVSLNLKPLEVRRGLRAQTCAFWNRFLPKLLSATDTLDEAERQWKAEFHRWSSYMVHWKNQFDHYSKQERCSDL
The experiment in a line: Inhibition of mouse recombinant AChE using acetylthiocholine iodide as substrate by Ellman's method. Background: Ellman's reagent forms a yellow product with free thiols.

The target of assay [2] is T1, Acetylcholinesterase. The experiment in a line: Binding affinity to mouse AChE by isothermal titration calorimetry. Background: Isothermal titration calorimetry measures the heat released or taken up as one component is titrated into another.
Assay [3] has as its target T1, Acetylcholinesterase.
In assay [4] the target is T1, Acetylcholinesterase. The assay is described as follows: Inhibition of wild type mouse AChE expressed in HEK293 cells using ATCh as substrate. The assay is classed as cell-based.

The structures appear in SMILES notation.

The IC50 is the midpoint of a concentration-inhibition curve. For the compound `CCN(CC)CCNS(=O)(=O)c1ccc(Cl)cc1`, the IC50 on Acetylcholinesterase [1] worked out at 88 µM.

One may read the Kd as a measure of binding affinity in units of concentration. Low readings indicate higher affinity, high ones lower affinity. The compound `CCN(CC)CCNS(=O)(=O)c1cccc(Cl)c1` yielded a Kd at Acetylcholinesterase [2] of 44.4 µM. The IC50 at Acetylcholinesterase [1] came to 18 µM.

In the case of `CCN(CC)CCNS(=O)(=O)c1ccc(OC)cc1`, the IC50 on Acetylcholinesterase [1] is 119 µM. Regarding `CCN(CC)CCNS(=O)(=O)c1ccc(C)cc1`, at Acetylcholinesterase [1], the half-inhibitory concentration (IC50) turned out to be 135 µM. Same read-out and setting: for `CCN(CC)CCNS(=O)(=O)c1ccc(F)cc1` the value was 62 µM. On the same count and under the same terms, for `CCN(CC)CCNS(=O)(=O)c1ccc([N+](=O)[O-])cc1` the value was 95 µM; for `CCN(CC)CCNS(=O)(=O)c1ccc(Cl)cc1F`, 91 µM; for `CCN(CC)CCNS(=O)(=O)c1ccc(F)c(F)c1`, 50 µM. The same measure, in the same setting: to `CCN(CC)CCNS(=O)(=O)c1cccc2ccccc12` belongs 44 µM; to `CCN(CC)CCNS(=O)(=O)c1ccc2ccccc2c1`, more than 700 µM.

Take `CCN(CC)CCNS(=O)(=O)c1ccc(-c2ccc(Cl)cc2)cc1`: the IC50 at Acetylcholinesterase [1] was more than 700 µM. Still for that read-out and setting: to `CCN(CC)CCNS(=O)(=O)Cc1ccccc1` belongs 139 µM; to `CCN(CC)CCNS(=O)(=O)Cc1ccc(F)cc1`, 40 µM. On to `CCN(CC)CCNS(=O)(=O)Cc1ccc(Cl)cc1`, for which the Kd on Acetylcholinesterase [2] turned out to be 11.1 µM. The 50% inhibitory concentration (IC50) at Acetylcholinesterase [1] was 12 µM.

Regarding `CCN(CC)CCNS(=O)(=O)Cc1ccc(C(F)(F)F)cc1`, the Kd at Acetylcholinesterase [2] was determined as 9.2 µM. For the same compound, at Acetylcholinesterase [1], the IC50 turned out to be 12 µM. Take `CCN(CC)CCNS(=O)(=O)Cc1ccc(Br)cc1`: the IC50 at Acetylcholinesterase [1] worked out at 10 µM. The same measure, in the same setting: for `CCN(CC)CCNS(=O)(=O)Cc1ccc(Cl)c(Cl)c1` the value was 7 µM; for `CCN(CC)CCNS(=O)(=O)c1ccccc1`, 31 µM. The same measure, in the same setting: to `CCN(CC)CCNS(=O)(=O)c1ccccc1F` belongs 41 µM; to `CCN(CC)CCNS(=O)(=O)c1cccc(OC)c1`, 7 µM. `CCN(CC)CCNS(=O)(=O)c1cccc(C(F)(F)F)c1` returned a Kd on Acetylcholinesterase [2] of 14.8 µM. On Acetylcholinesterase [1], the 50% inhibitory concentration (IC50) was 22 µM.

As to `C/C=C1\[C@H]2C=C(C)C[C@]1(N)c1ccc(=O)[nH]c1C2` [HUPERZINE A], the half-maximal inhibitory concentration (IC50) against Acetylcholinesterase [3] is 0.082 µM. At Acetylcholinesterase [4], `CC[N+](C)(CC)CCC[n+]1c(-c2ccccc2)c2cc(N)ccc2c2ccc(N)cc21` [PROPIDIUM] registered an IC50 of 1.1 µM.

These data come from ChEMBL document CHEMBL3085720, “Divergent structure-activity relationships of structurally similar acetylcholinesterase inhibitors” (J Med Chem, 2013).
